# Assay results taken from publication PMC9671962 (Communications Biology, 2022).
# Like-named read-outs stand apart in the source and are kept apart here.
# Format: in vivo, CB57 SCID mice
# Method: Toxicity studies were done in nontumor bearing CB-17 SCID mice (Taconic Biosciences). […] Each arm had n = 10 mice (5 male, 5 female mice). […] The vehicle group received an equal volume of saline (placebo). Weights were obtained twice weekly and mice were monitored daily for signs of toxicity. […] On target hematological and marrow toxicity which was evaluated by complete blood counts and marrow colony formation assay. An additional study was performed under identical conditions to evaluate additive dose effects. […] Each treatment group was composed of equal numbers of male and female mice to rule out gender-specific effects (n = 4 per treatment group per time point). Mice were followed for signs of acute toxicity for 2 weeks and 4 weeks before euthanasia. An additional group (n = 4) treated at 36 MBq/kg was euthanized after 72 h to assess early signs of toxicity by colony formation assays. This time course was chosen to best capture the nadir of bone marrow suppression. After euthanasia, blood was collected and femurs were dissected and processed for histopathology and bone marrow evaluation.
# Su p p lemen t ary Fig u res
# Supplementary Fi g u re 1 : Maximum tolerated dose finding studies for [211At]PT T adm inistered as 4
# dose fractions given twice weekly in male and female CB57 SCID mice (n=3 per sex per dose level).
# (1 picture or pasted object on this page, not shown here)
structure (smiles),measurement,setting,value
"O=C1NCCn2c(-c3ccc([211At])cc3)nc3cccc1c32 [[^211At]PTT, Astatine-211-parthanatine]",maximum tolerated dose (MTD),"intra-peritoneal, twice weekly, total of 4 dose fractions",36 MBq/kg
same,maximum tolerated dose (MTD),"x4 fractionated regimen, SCID PDX mice",36 MBq/kg/fraction
